Legend:
Assay in all cases: relative viability (nuclei count vs DMSO), 5 days (fraction); higher = more cells survive
Carfilzomib + Navitoclax = compound: CC(C)C[C@H](NC(=O)[C@H](CCc1ccccc1)NC(=O)CN1CCOCC1)C(=O)N[C@@H](Cc1ccccc1)C(=O)N[C@@H](CC(C)C)C(=O)[C@@]1(C)CO1 [Carfilzomib] + CC1(C)CCC(c2ccc(Cl)cc2)=C(CN2CCN(c3ccc(C(=O)NS(=O)(=O)c4ccc(N[C@H](CCN5CCOCC5)CSc5ccccc5)c(S(=O)(=O)C(F)(F)F)c4)cc3)CC2)C1 [Navitoclax] (partner 0.5 µM)
Procedure, shortened: (§1)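 A single step with final 0.05% Triton X-100, 1% formaldehyde and 1 ug/ml Hoechst fixed the cells and stained nuclei 5 days after treatment. Lung cancer cell lines in 1536-well plates had been treated by pin tool the day after seeding with one drug alone or a fixed anchor-drug dose plus five library-drug doses (not always all listed) in √10 steps, and nuclei were counted on 4× images. Relative viability is the ratio of nuclei in treated wells to nuclei in vehicle wells, taken as the median of duplicate plates.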

Crizotinib + Bortezomib = compound: C[C@@H](Oc1cc(-c2cnn(C3CCNCC3)c2)cnc1N)c1c(Cl)ccc(F)c1Cl [Crizotinib] + CC(C)C[C@H](NC(=O)[C@H](Cc1ccccc1)NC(=O)c1cnccn1)B(O)O [Bortezomib] (partner 0.002 µM)
Procedure, shortened: as §1

Crizotinib + AZD7762 = compound: C[C@@H](Oc1cc(-c2cnn(C3CCNCC3)c2)cnc1N)c1c(Cl)ccc(F)c1Cl [Crizotinib] + NC(=O)Nc1cc(-c2cccc(F)c2)sc1C(=O)N[C@H]1CCCNC1 [AZD7762] (partner 0.2 µM)
Procedure, shortened: as §1

Olaparib + Lapatinib = compound: O=C(c1cc(Cc2n[nH]c(=O)c3ccccc23)ccc1F)N1CCN(C(=O)C2CC2)CC1 [Olaparib] + CS(=O)(=O)CCNCc1ccc(-c2ccc3ncnc(Nc4ccc(OCc5cccc(F)c5)c(Cl)c4)c3c2)o1 [Lapatinib] (partner 2 µM)
Procedure, shortened: as §1

| Cell Line | relative viability (Carfilzomib + Navitoclax; first compound 0.001 µM) | relative viability (Carfilzomib + Navitoclax; first compound 0.003162 µM) | relative viability (Carfilzomib + Navitoclax; first compound 0.01 µM) | relative viability (Carfilzomib + Navitoclax; first compound 0.03162 µM) | relative viability (Carfilzomib + Navitoclax; first compound 0.1 µM) | relative viability (Crizotinib + Bortezomib; first compound 0.01 µM) | relative viability (Crizotinib + Bortezomib; first compound 0.03162 µM) | relative viability (Crizotinib + Bortezomib; first compound 0.3162 µM) | relative viability (Crizotinib + Bortezomib; first compound 1 µM) | relative viability (Crizotinib + AZD7762; first compound 0.01 µM) | relative viability (Crizotinib + AZD7762; first compound 0.03162 µM) | relative viability (Crizotinib + AZD7762; first compound 0.1 µM) | relative viability (Crizotinib + AZD7762; first compound 0.3162 µM) | relative viability (Crizotinib + AZD7762; first compound 1 µM) | relative viability (Olaparib + Lapatinib; first compound 0.08 µM) | relative viability (Olaparib + Lapatinib; first compound 0.253 µM) | relative viability (Olaparib + Lapatinib; first compound 2.53 µM) | relative viability (Olaparib + Lapatinib; first compound 8 µM) | relative viability (Crizotinib + Bortezomib; first compound 0.1 µM) |
| --- | --- | --- | --- | --- | --- | --- | --- | --- | --- | --- | --- | --- | --- | --- | --- | --- | --- | --- | --- |
| 201T | 1.14 | 1.23 | 1.22 | 1.23 | 1.18 | 1.07 | 1.09 | 1.14 | 1.2 | 0.6 | 0.628 | 0.558 | 0.575 | 0.716 | 1.06 | 0.973 | 0.939 | 1 | – |
| A549 | 1.17 | 1.21 | 1.24 | 0.0372 | 0.0397 | – | – | – | – | – | – | – | – | – | 1.21 | 0.833 | 0.983 | 0.666 | – |
| A-427 | 0.954 | 1.01 | 1.04 | 0.644 | 0.113 | 0.91 | 1.03 | – | 0.999 | 0.709 | 0.766 | 0.773 | – | 0.684 | 1.13 | 0.931 | 0.879 | 1.02 | 0.953 |
| ABC-1 | – | – | – | – | – | 0.277 | 0.368 | 0.279 | 0.299 | 0.902 | 0.848 | 0.695 | 0.671 | 1.34 | 1.01 | 1.07 | 1.02 | 1.25 | 0.292 |
| BEN | 0.0574 | 0.0653 | 0.0797 | 0.0533 | 0.047 | 0.862 | 0.788 | 0.815 | 0.78 | 0.726 | 0.645 | 0.671 | 0.586 | 0.679 | 0.636 | 0.515 | 0.784 | 0.712 | – |
| CAL-12T | – | 0.996 | 1.22 | 0.822 | 0.104 | 0.991 | 1.02 | – | 0.907 | 0.527 | 0.679 | 0.624 | 0.635 | 0.694 | 0.94 | 0.643 | 0.631 | 0.664 | 1.13 |
| COR-L23 | 1.1 | 1.14 | 0.724 | 0.0667 | 0.0704 | 0.927 | 0.9 | 0.989 | 0.96 | – | – | – | – | – | 1.26 | 0.815 | 0.739 | 0.438 | 0.915 |
| COR-L 105 | 0.885 | 0.628 | 0.643 | 0.353 | 0.298 | 0.825 | 0.778 | 0.699 | 0.941 | – | – | – | – | – | 0.341 | 0.348 | 0.363 | 0.317 | 0.787 |
| Calu-6 | 0.885 | 0.997 | 0.561 | 0.0829 | 0.0768 | 0.936 | 0.988 | 0.892 | 0.958 | – | – | – | – | – | 1.23 | 0.995 | 0.893 | 0.724 | 1.03 |
| ChaGo-K-1 | – | 1.58 | 1.01 | 0.693 | 0.385 | 0.947 | – | – | 0.96 | 0.83 | 0.841 | 0.839 | 0.711 | 0.905 | – | – | – | – | 1.2 |

From the supplement of paper PMC10307832
